From ChEMBL document CHEMBL4819020, “Discovery of [1,2,4]triazolo[1,5-a]pyrimidines derivatives as potential anticancer agents” (Eur J Med Chem, 2021)

Experiments:
MGC-803 = assay: Antiproliferative activity against human MGC-803 cells assessed as inhibition of cell proliferation measured after 72 hrs by MTT assay; format: functional, cell-based; settings: MGC-803, 72 h
MCF7 = assay: Antiproliferative activity against human MCF7 cells assessed as inhibition of cell proliferation measured after 72 hrs by MTT assay; format: functional, cell-based; settings: MCF7, 72 h
PC-9 = assay: Antiproliferative activity against human PC-9 cells assessed as inhibition of cell proliferation measured after 72 hrs by MTT assay; format: functional, cell-based; settings: PC-9, 72 h
GES1 = assay: Antiproliferative activity against human GES1 cells assessed as inhibition of cell proliferation measured after 72 hrs by MTT assay; format: cell-based; settings: GES1, 72 h

Structure (SMILES)	IC50 (MGC-803) [µM]	IC50 (MCF7) [µM]	IC50 (PC-9) [µM]	IC50 (GES1) [µM]
Cc1cc(Nc2cc(-c3ccccc3)[nH]n2)n2nc(SCc3cccc(Br)c3)nc2n1	4.82	5.14	8.9	> 50
Cc1cc(Nc2cc(-c3ccccc3)[nH]n2)n2nc(SCc3ccc(F)cc3)nc2n1	3.27	4.02	8.11	35.5
Cc1cc(Nc2cc(-c3ccccc3)[nH]n2)n2nc(SCc3ccccc3Br)nc2n1	3.65	3.02	5.63	41.1
Cc1cc(Nc2cc(C(C)(C)C)[nH]n2)n2nc(SCc3ccc(Br)cc3)nc2n1	5.62	7.29	12.4	> 50
Cc1nc2nc(SCc3ccc(Cl)cc3)nn2c(Nc2cc(-c3ccccc3)[nH]n2)c1C	9.05	10.6	> 50	47.2
Cc1cc(Nc2cc(-c3ccccc3)[nH]n2)n2nc(SCc3c(Cl)cccc3Cl)nc2n1	5.28	3.23	5.18	39.6
C=CCSc1nc2nc(C)cc(Nc3cc(-c4ccccc4)[nH]n3)n2n1	17.2	> 50	> 50	> 50
O=c1[nH]cc(F)c(=O)[nH]1 [FLUOROURACIL]		5.32		2.45
COc1ccc(CSc2nc3nc(C)cc(Nc4cc(-c5ccccc5)[nH]n4)n3n2)cc1	3.17	4.02	8.11	28.2
CCCSc1nc2nc(C)cc(Nc3cc(-c4ccccc4)[nH]n3)n2n1	12.6	> 50	> 50	> 50
Cc1cc(Nc2cc(-c3ccccc3)[nH]n2)n2nc(SCc3ccc(C(F)(F)F)cc3)nc2n1	3.52	4.82	4.24	42.7
C#CCSc1nc2nc(C)cc(Nc3cc(-c4ccccc4)[nH]n3)n2n1	13.4	21.8	> 50	45.7
Cc1cc(Nc2cc(-c3ccccc3)[nH]n2)n2nc(SCc3cc(=O)oc4c3ccc3ccccc34)nc2n1	2.07	4.28	3.41	28.6
COc1ccc(Cn2ccc(Nc3cc(C)nc4nc(SCc5ccc(Br)cc5)nn34)n2)cc1	12.6	14.6	> 50	> 50
Cc1cc(Nc2cc(-c3ccccc3)[nH]n2)n2nc(SCCCc3ccccc3)nc2n1	6.51	3.9	5.03	40.2
Cc1cc(Nc2cc(-c3ccccc3)[nH]n2)n2nc(SCc3ccc([N+](=O)[O-])cc3)nc2n1	4.25	5.06	7.98	43.6
Cc1cc(Nc2cc(-c3ccccc3)[nH]n2)n2nc(SCc3cccc4ccccc34)nc2n1	3.12	7.56	3.95	36.3
Cc1cc(Nc2cc(-c3ccc(Cl)cc3)[nH]n2)n2nc(SCc3ccc(Br)cc3)nc2n1	2.78	3.62	4.92	28.2
Cc1cc(Nc2ccn(Cc3csc4ccc(Cl)cc34)n2)n2nc(SCc3ccc(Br)cc3)nc2n1	1.57	2.57	4.35	31.4

Structure (SMILES)	IC50 (MGC-803) [µM]	IC50 (MCF7) [µM]	IC50 (PC-9) [µM]	IC50 (GES1) [µM]
Cc1cc(Nc2cc(-c3ccccc3)[nH]n2)n2nc(SCCc3ccccc3)nc2n1	5.62	2.7	4.93	37.4
Cc1cc(Nc2cc(-c3cccs3)[nH]n2)n2nc(SCc3ccc(Br)cc3)nc2n1	3.77	5.37	4.89	38.7
Cc1cc(Nc2cc(-c3ccccc3)[nH]n2)n2nc(SCC(=O)c3ccccc3)nc2n1	2.58	5.24	4.45	33.3
Cc1cc(Nc2cc(-c3ccccc3)[nH]n2)n2nc(SCc3csc4ccccc34)nc2n1	2.28	3.47	4.42	29.2
Cc1cc(Nc2cc(-c3ccccc3)[nH]n2)n2nc(SCc3ccc(Cl)cc3)nc2n1	3.95	8.26	6.71	31.8
Cc1ccc(CSc2nc3nc(C)cc(Nc4cc(-c5ccccc5)[nH]n4)n3n2)cc1	6.96	7.29	7.31	36.2
Cc1cc(Nc2ccn(Cc3ccccc3)n2)n2nc(SCc3ccc(Br)cc3)nc2n1	4.72	15.8	> 50	44.4
Cc1cc(Nc2cc(-c3ccc(F)cc3)[nH]n2)n2nc(SCc3ccc(Br)cc3)nc2n1	2.21	4.57	6.21	34.1
Cc1cc(Nc2cc(-c3ccccc3)[nH]n2)n2nc(SCC3CC3)nc2n1	16.1	> 50	> 50	> 50
Cc1cc(Nc2cc(-c3ccccc3)[nH]n2)n2nc(SCC3CCCCC3)nc2n1	12.6	> 50	> 50	> 50
CCCCCc1c(C)nc2nc(SCc3ccc(Cl)cc3)nn2c1Nc1cc(-c2ccccc2)[nH]n1	7.14	6.39	> 50	> 50
Cc1cc(Nc2ccn(Cc3cccc4ccccc34)n2)n2nc(SCc3ccc(Br)cc3)nc2n1	3.24	4.31	5.66	30
Cc1cc(Nc2ccn(Cc3ccc(C(F)(F)F)cc3)n2)n2nc(SCc3ccc(Br)cc3)nc2n1	2.59	2.28	5.58	30.2
Cc1cc(Nc2ccn(Cc3ccc(F)cc3)n2)n2nc(SCc3ccc(Br)cc3)nc2n1	3.07	4.28	19.4	40.5
Cc1ccc(Cn2ccc(Nc3cc(C)nc4nc(SCc5ccc(Br)cc5)nn34)n2)cc1	7.42	11.3	> 50	> 50
Cc1cc(Nc2cc(-c3ccccc3)[nH]n2)n2nc(SCc3nc4ccccc4[nH]3)nc2n1	1.79	2.73	4.84	27.8
Cc1cc(Nc2cc(-c3ccccc3)[nH]n2)n2nc(SCc3ccc(Br)cc3)nc2n1	1.11	2.72	4.76	39.3
Cc1cc(Nc2cc(-c3ccccc3)[nH]n2)n2ncnc2n1	21.7	> 50	> 50	> 50
